Source: paper PMC7377239, “Cardiovascular Effects of Polychlorinated Biphenyls and Their Major Metabolites” (Environmental Health Perspectives, 2020)
Like-named read-outs stand apart in the source and are kept apart here.

Key:
[1] = system: iCell endothelial cells (human iPSC-derived ECs); assay: Tube formation (tubulogenesis) assay in iCell endothelial cells, 18 h; assay type: cell-based
Procedure, shortened: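 iCell ECs (passages 1–5) seeded 7,500 cells/well on reduced-growth-factor Geltrex in starvation medium, exposed overnight at 37°C to compounds in triplicate concentration–response (0.5% DMSO vehicle). Calcein AM staining, 4× imaging, angiogenesis image analysis; readouts normalized to vehicle, four-parameter logistic fit, POD at 1 SD of vehicle; 100 μM assigned NOAEL if no response.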

HUVECs = assay: High-content imaging cytotoxicity in HUVECs, 24 h; assay type: cell-based, human; conditions: for minimal effective concentration / viability at 0.01 µM / activity at 0.01 µM / activity at 0.1 µM / viability at 1 µM / activity at 1 µM / viability at 10 µM / activity at 10 µM / viability at 100 µM / activity at 100 µM: Homo sapiens, HUVEC, 24 h; for viability at 0.01 µM / activity at 0.01 µM: concentration 0.01 µM; for viability at 1 µM / activity at 1 µM: concentration 1.00 µM; for viability at 10 µM / activity at 10 µM: concentration 10.00 µM; for viability at 100 µM / activity at 100 µM: concentration 100.00 µM
Procedure, shortened: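 HUVECs (passages 1–5) grown to monolayer over 3–5 d, then exposed 24 h at 37°C, 5% CO2; stained with Hoechst 33342, MitoTracker Orange and calcein AM and imaged at 10×. Readouts normalized to 0.5% DMSO vehicle, four-parameter logistic fit; POD at one-SD cutoff, 100μM assigned when no response.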

[2] = iPSC-EC, 0.10 µM, 0.00 µM = 100.00
[3] = iPSC-EC, 10.00 µM, 0.00 µM = 100.00
[4] = iPSC-EC, 100.00 µM, 0.00 µM = 100.00
[5] = HUVECs, 24 hr, 0.00 µM = 100.00, read-out: huvec.cyto.24hr
[6] = HUVECs, 24 hr, 0.00 µM = 100.00, read-out: huvec.mito.24hr
[7] = HUVECs, 24 hr, 0.00 µM = 100.00, read-out: huvec.mitoint.24hr
[8] = HUVECs, 24 hr, 0.00 µM = 100.00, read-out: huvec.nma.24hr
[9] = HUVECs, 24 hrs, 0.00 µM = 100.00, read-out: huvec.tc.24hrs

Clc1ccc(Cl)c(-c2c(Cl)ccc(Cl)c2Cl)c1Cl [(+)-PCB 136, 2,2′,3,3′,6,6′-hexachlorobiphenyl]
minimal effective concentration ([1]; Homo sapiens, Endothelial cell, endothelial cells (endo), tube formation mtl, 18 hr, read-out: POD endo.mtl.18hr): 63.5 µM
activity at 0.01 µM ([1]; Homo sapiens, Endothelial cell, iPSC-EC, 0.01 µM, 0.00 µM = 100.00, read-out: endo.mtl.18hr): 115%
activity at 0.01 µM ([1]; Homo sapiens, Endothelial cell, iPSC-EC, 0.01 µM, 0.00 µM = 100.00, read-out: endo.tta.18hr): 133%
activity at 0.01 µM ([1]; Homo sapiens, Endothelial cell, iPSC-EC, 0.01 µM, 0.00 µM = 100.00, read-out: endo.ttl.18hr): 135%
activity at 0.1 µM ([1]; Homo sapiens, Endothelial cell, iPSC-EC, 0.10 µM, 0.00 µM = 100.00, read-out: endo.mtl.18hr): 113%
activity at 0.1 µM ([1]; Homo sapiens, Endothelial cell, iPSC-EC, 0.10 µM, 0.00 µM = 100.00, read-out: endo.ttl.18hr): 132%
activity at 1 µM ([1]; Homo sapiens, Endothelial cell, iPSC-EC, 1.00 µM, 0.00 µM = 100.00, read-out: endo.mtl.18hr): 111%
activity at 1 µM ([1]; Homo sapiens, Endothelial cell, iPSC-EC, 1.00 µM, 0.00 µM = 100.00, read-out: endo.tta.18hr): 134%
activity at 1 µM ([1]; Homo sapiens, Endothelial cell, iPSC-EC, 1.00 µM, 0.00 µM = 100.00, read-out: endo.ttl.18hr): 139%
activity at 10 µM ([1]; Homo sapiens, Endothelial cell, iPSC-EC, 10.00 µM, 0.00 µM = 100.00, read-out: endo.mtl.18hr): 107%
minimal effective concentration ([1]; Homo sapiens, Endothelial cell, iPSC-EC, 100.00 = highest concentration tested, read-out: endo.mtl.18hr POD): 63.5 µM
endo.tlps.18hr ([1]; iPSC-EC, 0.01 µM, 0.00 µM = 100.00): 101.49
endo.tlps.18hr [1, 2]: 128.16
endo.tta.18hr [1, 2]: 137.60
endo.tlps.18hr ([1]; iPSC-EC, 1.00 µM, 0.00 µM = 100.00): 103.43
endo.tlps.18hr [1, 3]: 157.84
endo.tta.18hr [1, 3]: 197.38
endo.ttl.18hr [1, 3]: 177.54
endo.mtl.18hr [1, 4]: 68.39
endo.tlps.18hr [1, 4]: 43.04
endo.tta.18hr [1, 4]: 78.91
endo.ttl.18hr [1, 4]: 80.17
huvec.mito.24hr (HUVECs; HUVECs, 24 hr, concentration 0.10 µM, 0.00 µM = 100.00): 96.64
minimal effective concentration (HUVECs; mitoint, 24 hr, read-out: POD huvec.mitoint.24hr): 0.64 µM
minimal effective concentration (HUVECs; nma, 24 hr, read-out: POD huvec.nma.24hr): 1.82 µM
viability at 0.01 µM (HUVECs; [5]): 89.2%
activity at 0.01 µM (HUVECs; [6]): 87.1%
activity at 0.01 µM (HUVECs; [7]): 81.7%
activity at 0.01 µM (HUVECs; [8]): 95.8%
activity at 0.1 µM (HUVECs; HUVECs, 24 hr, concentration 0.10 µM, 0.00 µM = 100.00, read-out: huvec.mitoint.24hr): 80.9%
activity at 0.1 µM (HUVECs; HUVECs, 24 hr, concentration 0.10 µM, 0.00 µM = 100.00, read-out: huvec.nma.24hr): 93.4%
viability at 1 µM (HUVECs; [5]): 81.4%
activity at 1 µM (HUVECs; [6]): 80.3%
activity at 1 µM (HUVECs; [7]): 78.8%
activity at 1 µM (HUVECs; [8]): 99.5%
viability at 10 µM (HUVECs; [5]): 65.2%
activity at 10 µM (HUVECs; [6]): 30.4%
activity at 10 µM (HUVECs; [7]): 9.57%
activity at 10 µM (HUVECs; [8]): 50.8%
viability at 100 µM (HUVECs; [5]): 40%
activity at 100 µM (HUVECs; [6]): 25.7%
activity at 100 µM (HUVECs; [7]): 14.8%
activity at 100 µM (HUVECs; [8]): 75.7%
minimal effective concentration (HUVECs; HUVECs, 24 hr, MAX 100.00, read-out: huvec.mitoint.24hr POD): 0.64 µM
minimal effective concentration (HUVECs; HUVECs, 24 hr, MAX 100.00, read-out: huvec.nma.24hr POD): 1.82 µM
viability at 0.01 µM (HUVECs; [9]): 89.2%
viability at 1 µM (HUVECs; [9]): 81.4%
viability at 10 µM (HUVECs; [9]): 65.3%
viability at 100 µM (HUVECs; [9]): 40.2%
